Reference: article PMC8208785, “Therapeutic efficacy of novel memantine nitrate MN‐08 in animal models of Alzheimer’s disease” (Aging Cell, 2021)

Key:
[1] = system: APP/PS1 mice; assay: Aβ plaque staining and Aβ ELISA in brains of APP/PS1 mice; type: in vivo; conditions: for amyloid plaque burdens (Aβ1‐42, Aβ1‐16 staining): prevention study, hippocampus and cortex
Method: APP/PS1 transgenic mice were purchased from Jackson Laboratory and reproduced in the Shenzhen Center for Disease Control and Prevention (Shenzhen, China). Two‐month‐old APP/PS1 mice were divided into four groups: (1) APP/PS1 + Vehicle group; (2) APP/PS1 + MN‐08 (6 mg/kg) group; (3) APP/PS1 + Memantine (Mem, 5 mg/kg) group; (4) APP/PS1 + Donepezil (Done, 1.3 mg/kg, once daily) group; (5) Two‐month‐old C57BL/6J mice as a control group. The APP/PS1 mice were administered drugs twice a day (Done, once daily) by gastric gavage from ages 2 to 8 months for 6 months successively. Control and vehicle groups received equal volumes of saline.
To evaluate the concentration of soluble and insoluble Aβ in AD mice, the hippocampus and cortex were homogenized in the lysate, which was then centrifuged at 12000 g for 30 min at 4°C. Supernatant samples were collected as soluble Aβ. Sediment of the cortex and hippocampus was resuspended with formic acid, incubated on ice for 60 min and then centrifuged at 12,000 g for 30 min at 4°C. The supernatant and Tris/NaH2PO4 buffer were mixed as insoluble Aβ. The concentration of Aβ was analyzed by ELISA kit of human amyloid β (R&D Systems, Minneapolis, MN, USA) following the manufacturer’s instructions.
Immunohistochemistry and immunofluorescence staining were carried out as previously described (Zhang et al., 2017). Coronal brain sections were incubated with […] sodium citrate (pH 6.0) and heated for 15 min. After cooling to room temperature, the sections were immersed in 3 % H2O2 for 10 min followed by blocking solution (10 % fetal bovine serum, 1 % bovine serum albumin and 0.1 % Triton X-100) for 1 h. Sections were then incubated with the following appropriate primary antibodies overnight at 4°C: anti-Aβ1-42 antibody (#ab10148, 1:1000, Abcam), anti-Aβ1-16 antibody (#803014, 1:1000, Abcam) and anti-NeuN antibody (#ab177487, 1:400, Abcam). After rinsing 3 times, the sections of immunohistochemistry staining were incubated with biotin-conjugated universal secondary antibody (Gene Tech, Shanghai, China). For immunofluorescence staining, the sections were incubated with appropriate secondary antibodies for 2 h at room temperature. Image J software was used to analyze the fluorescence intensity and cell counting from six slices at similar coronal positions of each animal; this was performed by a viewer blinded to the experimental group.

[2] = system: cerebellar granule neurons (CGNs); assay: Hoechst 33342 staining of apoptotic bodies in glutamate-challenged CGNs; type: cell-based, rat; conditions: 24 h glutamate 100 µM
Method: CGNs were prepared from the 8-day-old Sprague–Dawley rats as described in our previous publication (Li et al., 2005). Briefly, animals were anesthetized and sacrificed, and their cerebella were collected. Then, the freshly collected cerebella were rinsed in cold Kreb’s buffer-BSA and digested with 0.025 % trypsin incubated in a 37°C for 15 min. The reaction was stopped, and the single cell suspension was obtained through pipetting up and down the sedimentary tissue. CGNs were seeded in basal modified Eagle’s medium (ThermoFisher Scientific, Waltham, MA, USA) supplemented with 10 % fetal bovine serum, 25 mM KCl, 2 mM glutamine and 100 units/mL penicillin/streptomycin at a density of 1.5×10^6 cells/mL. […]
Chromatin condensation, the apoptotic characteristic feature, was determined by Hoechst 33342 staining as described in previous publications with some modifications (Guo et al., 2017; Jiajia et al., 2017). […] The nuclei were visualized by using a fluorescence Leica TCS SPE confocal (Leica, Wetzlar, Germany) at 200× magnification. In the observation, cells with bright blue fragmented nuclei, which were showing condensation of chromatin, were counted as apoptotic cells. Condensed nuclei were scored by counting at least 500 cells of three randomly chosen fields for each sample in three separated experiments.

Compound	amyloid plaque burdens (Aβ1‐42, Aβ1‐16 staining) ([1]; MN‐08 6 mg/kg)	soluble and insoluble Aβ1–42 (ELISA) ([1]; MN‐08 6 mg/kg, hippocampal and cortical regions)	levels of Aβ1–40 (ELISA) ([1]; MN‐08 6 mg/kg, hippocampi and cortices)	numbers of apoptotic bodies ([2]; MN‐08 30 µM)	amyloid plaque burdens (Aβ1‐42, Aβ1‐16 staining) ([1]; memantine 5 mg/kg)	numbers of apoptotic bodies ([2]; memantine 10 µM)
CCC12CC3CC(N)(C1)CC(CO[N+](=O)[O-])(C3)C2 (stereo not drawn) [MN‐08]	obviously attenuated	significantly decreased	no significant difference	significantly reduced	–	–
CC12CC3CC(C)(C1)CC(N)(C3)C2 [memantine, 1‐amino‐3,5‐dimethyladamantane]	–	–	–	–	obviously attenuated	significantly reduced
